According to BindingDB's records for PubMed 37191335 (Tongji University, 2023):
Peptide text beside a SMILES is read from it.

What was measured:
[1] = Inhibition of TNF-alpha (unknown origin) binding to TNFR1 assessed as dissociation constant of TNF-alpha preincubated for 15 mins by MST assay (Rvb = 13.4 nM)
[2] = Inhibition of TNF-alpha (unknown origin) binding to TNFR2 assessed as dissociation constant of TNF-alpha preincubated for 15 mins by MST assay (Rvb = 30.5 nM)

- Kd [1]: 996 nM
- Kd [2]: 321 nM
Compound: C[C@H](N)C(=O)N[C@@H](CS)C(=O)N[C@@H](Cc1cnc[nH]1)C(=O)N[C@@H](C)C(=O)N[C@@H](Cc1c[nH]c2ccccc12)C(=O)N[C@@H](C)C(=O)N1CCC[C@H]1C(=O)N[C@H](C(=O)N[C@@H](CCCNC(=N)N)C(=O)O)[C@@H](C)O (H-ACHAWAPTR-OH)
